Assay results as given in patent US9260759B2, “Pyrazoloanthrone and derivatives thereof for the treatment of cancers expressing MISRII” (The General Hospital Corporation, priority 2007, dated 2016).
Where two headings read alike, the source gives them in different places.

Key:
JNK = test: Immunoblot of JNK phosphorylation in MOVCAR7 cells; format: cell-based, mouse
Experimental: (§1) The results are representative of several experiments.
(§2) Cells were washed in PBS and lysates were prepared in 1× Passive lysis buffer (PLB) provided with the Dual luciferase reporter assay kit (Promega). The lysates were cleared by centrifugation and the protein concentration was determined by Bradford assay (Bio-Rad, Hercules Calif.). […] of protein were loaded onto a NuPAGE 4-12% Bis-Tris gradient gel with MOPS-buffer (Invitrogen, Carlsbad Calif.) for polyacrylamide gel electrophoresis. Following transfer to a nitrocellulose by electroblotting, the membrane was blocked in 5% milk Tris-buffered saline/Tween20 (TBS-T) for 1 h at room temperature and incubated with primary antibody (pJNK, c-jun and phosph c-jun antibodies were purchased from Cell Signalling, Danvers, Mass.; amd JNK antibody was published from Santa Cruz Biotechnology, Calif.) overnight at 4° C. in 5% BSA followed by incubation with secondary horseradish peroxidase conjugated anti-rabbit antibody (Jackson ImmunoResearch, Westgrove Pa.) for 1 h. Immunoreactive proteins were detected by enhanced chemiluminescence (Pierce, Rockford Ill.). Anisomycin was purchased from Calbiochem.
(§3) The known Jun kinase activator anisomycin was used as a positive control (Hazzalin, 1998). […] Further, MIS had no effect on phosphorylation of JNK by anisomycin.

rat MISRII = target: T1, rat MISRII (Rattus norvegicus, UniProt Q62893); test: BRE-luciferase reporter assay in COS7 cells transfected with MISRII; format: cell-based
T1 construct: expressed in transfected cells; host or cells: COS7
T1 sequence (Q62893 18-557): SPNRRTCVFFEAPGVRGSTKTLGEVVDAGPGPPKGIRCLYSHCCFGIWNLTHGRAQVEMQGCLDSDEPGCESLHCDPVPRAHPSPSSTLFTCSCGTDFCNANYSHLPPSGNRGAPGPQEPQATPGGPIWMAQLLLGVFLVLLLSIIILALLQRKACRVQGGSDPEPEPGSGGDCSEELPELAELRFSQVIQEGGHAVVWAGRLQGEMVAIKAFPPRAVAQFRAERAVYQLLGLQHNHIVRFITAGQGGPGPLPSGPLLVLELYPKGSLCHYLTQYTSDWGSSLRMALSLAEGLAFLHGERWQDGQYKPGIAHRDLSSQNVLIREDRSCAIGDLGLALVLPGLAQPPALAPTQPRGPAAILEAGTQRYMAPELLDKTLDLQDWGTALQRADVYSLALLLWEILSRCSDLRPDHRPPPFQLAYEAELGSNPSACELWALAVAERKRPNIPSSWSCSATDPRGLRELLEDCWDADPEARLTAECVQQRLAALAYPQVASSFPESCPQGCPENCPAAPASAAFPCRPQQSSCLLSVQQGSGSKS
Source text: COS7 cells were transiently transfected with MISRH, BRE-Luciferase and phRL-CMV. […] Control cells were transfected with a control plasmid (EGFP-N1 plasmid) instead of the receptor plasmid to keep the total DNA transfected constant. The results shown are the fold-induction over vehicle treated cells and normalized to phRL-CMV expression to correct for variations in cell number and transfection efficiency. […] The results represent the mean values from three independent experiments performed in triplicates (Error bars represent SEM, *p<0.05, **p<0.001).
To identify molecules that interact with the MISRII, we developed a reporter assay where binding to MISRII activates a firefly luciferase reporter driven by the BMP-responsive element (BRE) promoter kindly provided by Dr. Peter ten Dijke (The Netherlands Cancer Institute, The Netherlands) The BMP promoter region on mouse M. mus is located on chromosome 2 (Chr2) and corresponds to RefSeq No: NT—039207.6 93504644-93506272 (SEQ ID NO:1). The BRE-luciferase reporter (Korchynskyi and ten Dijke, 2002, Logeart-Avramoglou, 2006) has multiple optimized BMP response elements (3 SBE, 7 GC, and 4 CAGC) driving the expression of the firefly luciferase. This reporter construct together with a control Renilla luciferase reporter phRL-CMV (Promega, Madison Wis.) and a rat MISRII cDNA expression construct (Teixeira, 1996) were transiently transfected into COST cells and plated in 384 well plates. Primary screens were performed at the Harvard Institute of Chemistry and Cell Biology screening facility. Compounds from chosen libraries were added at a volume of 100 nl at 5 mg/ml concentration in DMSO into 30 μl cell media and cultured for 24 h at 37° C., after which the luciferase activity was measured with reagents from Promega according to the manufacturer's instructions. A hit was identified as causing a fold induction over the plate median and each compound was tested in duplicate in separate plates. MIS was used to control for intra- and inter-assay variability.
COS7 cells were plated at a density of 5000 cells/well in 96-well plates for secondary screens. The day after plating cells were transfected with rat MISRII receptor or EGFP-N1 (Clontech, Mountain View Calif.) together with BRE firefly luciferase reporter construct and phRL-CMV using TransIT-LT1 transfection reagent (Mirus Bio Corporation, Madison Wis.). […] Results were obtained using the Dual Luciferase reporter assay according to the manufacturer's instructions (Promega). Plates were read in a Wallac Victor2 luminometer (PerkinElmer, Wellesley Mass.).

c-jun = test: Western blot of anisomycin-induced c-jun phosphorylation in MOVCAR cells; format: cell-based, mouse
Experimental: as §1, §2, §3

MOVCAR7 cells = test: MTT proliferation assay, MOVCAR7 cells; format: cell-based; details: Mus musculus, 168 h
Experimental: Cells were plated in 96-well plates and treated the day after. Seven days after plating the cell survival was measured using 3-(4,5-dimethylthiazol-2-yl)-2,5-diphenyltetrazolium bromide substrate and measuring the absorbance at 550 nm.
(Connolly, 2003). The 4306 cells were provided by Dr. Daniela Dinulescu, Brigham and Women's (Boston) (30). Cells were plated at a density of 1000 cells/well in 96-well plates and treated 24 h later. The cell proliferation was measured after 7 days by registering the absorbance at 550 nm. Paclitaxel was manufactured by Ivax Pharmaceuticals and obtained from the MGH pharmacy.
The cells were treated for 7 days and the proliferation was measured by spectrophotometry. To exclude cytotoxic effects on the cells unrelated to MIS signal transduction, we used untransfected COS7 cells as a negative control. […] Paclitaxel is used in treatment of a wide range of tumors, but the side effects can be debilitating (Pieretti-Vanmarcke, 2006a, Pieretti-Vanmarcke, 2006b).

MISRIIK228R = target: T2, MISRIIK228R (Rattus norvegicus, UniProt Q62893, K228R); test: BRE-luciferase reporter assay in COS7 cells with kinase-deficient receptor MISRIIK228R; format: cell-based; details: K228R receptor overexpressed, COS7, 24 hrs, agent alone
T2 construct: expressed in transfected cells; host or cells: COS7
T2 sequence (Q62893 18-557 K228R): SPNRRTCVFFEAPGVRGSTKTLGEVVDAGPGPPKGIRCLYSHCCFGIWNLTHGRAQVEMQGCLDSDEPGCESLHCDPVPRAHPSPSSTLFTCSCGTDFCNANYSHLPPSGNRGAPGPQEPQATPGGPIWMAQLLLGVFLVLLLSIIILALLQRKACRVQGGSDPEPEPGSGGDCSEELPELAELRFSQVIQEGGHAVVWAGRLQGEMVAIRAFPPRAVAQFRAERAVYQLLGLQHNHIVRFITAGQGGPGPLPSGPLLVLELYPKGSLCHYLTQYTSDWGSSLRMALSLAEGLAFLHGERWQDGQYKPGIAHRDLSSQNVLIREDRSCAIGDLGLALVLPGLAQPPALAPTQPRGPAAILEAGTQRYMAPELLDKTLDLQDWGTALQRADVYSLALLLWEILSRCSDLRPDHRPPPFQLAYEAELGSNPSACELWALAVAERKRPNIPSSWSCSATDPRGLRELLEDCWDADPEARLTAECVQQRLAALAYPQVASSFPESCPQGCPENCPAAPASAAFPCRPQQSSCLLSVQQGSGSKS
Source text: Results shown represent the mean values from four independent experiments performed in triplicates (Error bars represent standard error of the mean, *, P<0.05).

endogenous MISRII = target: T3, endogenous MISRII (Mus musculus, UniProt Q8K592); test: BRE-luciferase reporter assay in MOVCAR7 cells expressing endogenous MISRII; format: cell-based; details: 5 μg/ml MIS, MOVCAR7, 24 h
T3 construct: a mouse ovarian cancer cell line, MOVCAR7, that expresses endogenous MISRII; endogenous in cells; host or cells: MOVCAR7 (mouse ovarian cancer cell line)
T3 sequence (Q8K592 16-568): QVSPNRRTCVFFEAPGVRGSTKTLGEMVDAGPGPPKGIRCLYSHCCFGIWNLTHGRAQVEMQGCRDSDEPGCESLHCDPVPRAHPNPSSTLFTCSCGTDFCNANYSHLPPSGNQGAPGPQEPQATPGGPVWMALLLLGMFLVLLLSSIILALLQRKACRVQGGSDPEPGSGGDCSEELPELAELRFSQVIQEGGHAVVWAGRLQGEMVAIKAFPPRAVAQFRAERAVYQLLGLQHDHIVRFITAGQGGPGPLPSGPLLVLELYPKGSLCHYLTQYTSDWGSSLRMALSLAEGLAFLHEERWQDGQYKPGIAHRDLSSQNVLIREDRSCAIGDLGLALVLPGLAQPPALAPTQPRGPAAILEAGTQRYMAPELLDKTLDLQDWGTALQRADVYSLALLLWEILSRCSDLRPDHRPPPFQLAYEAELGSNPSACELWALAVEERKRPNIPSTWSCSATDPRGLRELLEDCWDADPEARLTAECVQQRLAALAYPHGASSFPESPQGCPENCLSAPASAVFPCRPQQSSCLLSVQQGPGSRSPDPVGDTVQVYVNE

Molecule: COc1ccc(C[C@H]2NC[C@H](O)[C@H]2OC(C)=O)cc1 [anisomycin, reference compound]
- phosphorylation of JNK (positive control) (JNK; 500 nM anisomycin, 30 min): strong activation

Molecule: CCOc1nc(NC(=O)Cc2cc(OC)ccc2OC)cc(N)c1C#N [JNK inhibitor VIII, reference compound]
- effect on BRE-luciferase when combined with MIS (rat MISRII; JNK inhibitor VIII 5, 25 or 50 μM with MIS): no further effect
- activation of BRE-luciferase (rat MISRII; JNK inhibitor VIII at 5, 25 or 50 μM alone, COS7): did not result in any activation
- inhibiting phosphorylation of c-jun, compared with SP600125 (c-jun): much more effective
- c-jun phosphorylation induced by 500 nM anisomycin (c-jun; pre-treatment 25 uM): inhibited

Molecule: CC(=O)O[C@H]1C(=O)[C@@]2(C)[C@H]([C@H](OC(=O)c3ccccc3)[C@]3(O)C[C@H](OC(=O)[C@H](O)[C@@H](NC(=O)c4ccccc4)c4ccccc4)C(C)=C1C3(C)C)[C@]1(OC(C)=O)CO[C@@H]1C[C@@H]2O [paclitaxel]
- IC50 (MOVCAR7 cells; read-out: IC50 of paclitaxel combined with SP600125): 0.21 nM
- IC50 (MOVCAR7 cells; MOVCAR7, 7 days, MTT, read-out: IC50 of paclitaxel alone): 0.81 nM

B1: MIS: Recombinant human MIS prepared from Chinese hamster ovary cells stably transfected with the human MIS gene (protein)
chain: LRAEEPAVGTSGLIFREDLDWPPGSPQEPLCLVALGGDSNGSSSPLRVVGALSAYEQAFLGAVQRARWGPRDLATFGVCNTGDRQAALPSLRRLGAWLRDPGGQRLVVLHLEEVTWEPTPSLRFQEPPPGGAGPPELALLVLYPGPGPEVTVTRAGLPGAQSLCPSRDTRYLVLAVDRPAGAWRGSGLALTLQPRGEDSRLSTARLQALLFGDDHRCFTRMTPALLLLPRSEPAPLPAHGQLDTVPFPPPRPSAELEESPPSADPFLETLTRLVRALRVPPARASAPRLALDPDALAGFPQGLVNLSDPAALERLLDGEEPLLLLLRPTAATTGDPAPLHDPTSAPWATALARRVAAELQAAAAELRSLPGLPPATAPLLARLLALCPGGPGGLGDPLRALLLLKALQGLRVEWRGRDPRGPGRAQRSAGATAADGPCALRELSVDLRAERSVLIPETYQANNCQGVCGWPQSDRNPRYGNHVVLLLKMQVRGAALARPPCCVPTAYAGKLLISLSEERISAHHVPNMVATECGCR
- BRE-luciferase expression, fold induction (rat MISRII; MIS 0.5 ug/ml alone, MISRII-transfected COS7, 24 h): greater than ten-fold
- activation of BRE-luciferase with kinase-deficient receptor (MISRIIK228R): neither MIS nor SP600125 activates BRE-luciferase
- increase of BRE activity compared to untreated cells (endogenous MISRII): 2 fold
- phosphorylation of JNK (JNK; 5 μg/ml MIS, 30 min): no phosphorylation beyond background
- effect of MIS on phosphorylation of JNK by anisomycin (JNK; MIS with anisomycin): no effect
